Data reported in the NIST ThermoML archive (doi:10.1016/j.jct.2018.08.013).
Several values for one entry are separate records, joined by “and”; a condition that tells them apart may be missing. Equal values may be shown once. Numbers after ± are expanded uncertainties.

Tests used:
[1] = xn = mol fraction of the nth substance listed; conditions: 298 K; 100 kPa; Crystal of intercomponent compound 1; X-ray diffraction; x2 = 0.542
[2] = specific heat capacity at constant pressure; xn = mol fraction of the nth substance listed; conditions: 100 kPa, Crystal of intercomponent compound 1, x2 = 0.542

[Te] [tellurium] + [In]
Conditions | mass density [kg/m3]
[1] | 6307 ± 44

[2]
Conditions | specific heat capacity
10.11 K, relaxation calorimetry | 13.3 ± 1.4 J/K/kg and 13.26 ± 1.4 J/K/kg
10.12 K, relaxation calorimetry | 13.3 ± 1.4 J/K/kg
12.12 K, relaxation calorimetry | 20.6 ± 1.7 J/K/kg and 20.59 ± 1.7 J/K/kg
12.13 K, relaxation calorimetry | 20.65 ± 1.7 J/K/kg
14.14 K, relaxation calorimetry | 28.68 ± 2 J/K/kg and 28.67 ± 2 J/K/kg and 28.69 ± 2 J/K/kg
16.15 K, relaxation calorimetry | 36.99 ± 2.2 J/K/kg
16.16 K, relaxation calorimetry | 36.96 ± 2.2 J/K/kg and 37.07 ± 2.2 J/K/kg
18.17 K, relaxation calorimetry | 45.25 ± 2.4 J/K/kg
18.18 K, relaxation calorimetry | 45.21 ± 2.4 J/K/kg
20.18 K, relaxation calorimetry | 53.21 ± 2.6 J/K/kg
20.19 K, relaxation calorimetry | 53.01 ± 2.6 J/K/kg and 53.25 ± 2.6 J/K/kg
22.2 K, relaxation calorimetry | 60.8 ± 2.9 J/K/kg and 61.01 ± 2.9 J/K/kg and 60.84 ± 2.9 J/K/kg
24.22 K, relaxation calorimetry | 68.02 ± 3.1 J/K/kg and 68.1 ± 3.1 J/K/kg
26.23 K, relaxation calorimetry | 74.95 ± 3.3 J/K/kg
26.24 K, relaxation calorimetry | 74.91 ± 3.3 J/K/kg and 74.95 ± 3.3 J/K/kg
28.25 K, relaxation calorimetry | 81.26 ± 3.5 J/K/kg and 81.31 ± 3.5 J/K/kg
30.27 K, relaxation calorimetry | 87.16 ± 3.7 J/K/kg
35.3 K, relaxation calorimetry | 101.02 ± 4.2 J/K/kg
35.31 K, relaxation calorimetry | 100.94 ± 4.2 J/K/kg and 100.9 ± 4.2 J/K/kg
40.34 K, relaxation calorimetry | 112.78 ± 4.7 J/K/kg and 112.99 ± 4.7 J/K/kg
40.35 K, relaxation calorimetry | 112.74 ± 4.7 J/K/kg
45.38 K, relaxation calorimetry | 122.93 ± 5.1 J/K/kg and 123.09 ± 5.1 J/K/kg
45.39 K, relaxation calorimetry | 122.76 ± 5 J/K/kg
50.41 K, relaxation calorimetry | 132.54 ± 5.4 J/K/kg
50.42 K, relaxation calorimetry | 132.13 ± 5.4 J/K/kg
50.43 K, relaxation calorimetry | 132.04 ± 5.4 J/K/kg
55.43 K, relaxation calorimetry | 140.42 ± 5.7 J/K/kg
55.45 K, relaxation calorimetry | 139.92 ± 5.7 J/K/kg
55.47 K, relaxation calorimetry | 139.72 ± 5.7 J/K/kg
60.47 K, relaxation calorimetry | 146.93 ± 6 J/K/kg
60.49 K, relaxation calorimetry | 146.4 ± 6 J/K/kg
60.51 K, relaxation calorimetry | 146.44 ± 6 J/K/kg
65.49 K, relaxation calorimetry | 153.78 ± 6.3 J/K/kg
65.53 K, relaxation calorimetry | 152.79 ± 6.2 J/K/kg
65.56 K, relaxation calorimetry | 152.5 ± 6.2 J/K/kg
70.51 K, relaxation calorimetry | 159.39 ± 6.5 J/K/kg
70.57 K, relaxation calorimetry | 158.16 ± 6.4 J/K/kg
70.61 K, relaxation calorimetry | 157.78 ± 6.4 J/K/kg
75.55 K, relaxation calorimetry | 164.01 ± 6.7 J/K/kg
75.61 K, relaxation calorimetry | 162.86 ± 6.6 J/K/kg
75.65 K, relaxation calorimetry | 162.69 ± 6.6 J/K/kg
80.58 K, relaxation calorimetry | 169.46 ± 6.9 J/K/kg
80.64 K, relaxation calorimetry | 167.77 ± 6.8 J/K/kg
80.7 K, relaxation calorimetry | 167.02 ± 6.8 J/K/kg
85.6 K, relaxation calorimetry | 173.13 ± 7.1 J/K/kg
85.68 K, relaxation calorimetry | 172.14 ± 7 J/K/kg
85.74 K, relaxation calorimetry | 170.65 ± 6.9 J/K/kg
90.65 K, relaxation calorimetry | 176.64 ± 7.2 J/K/kg
90.72 K, relaxation calorimetry | 175.44 ± 7.1 J/K/kg
90.77 K, relaxation calorimetry | 175.19 ± 7.1 J/K/kg
95.67 K, relaxation calorimetry | 179.52 ± 7.3 J/K/kg
95.75 K, relaxation calorimetry | 178.16 ± 7.3 J/K/kg
95.8 K, relaxation calorimetry | 177.96 ± 7.2 J/K/kg
100.78 K, relaxation calorimetry | 180.43 ± 7.3 J/K/kg
100.82 K, relaxation calorimetry | 179.89 ± 7.3 J/K/kg
100.89 K, relaxation calorimetry | 181.75 ± 7.4 J/K/kg
106.78 K, relaxation calorimetry | 184.18 ± 7.5 J/K/kg
106.86 K, relaxation calorimetry | 182.66 ± 7.4 J/K/kg
106.88 K, relaxation calorimetry | 182.86 ± 7.4 J/K/kg
113.77 K, relaxation calorimetry | 186.45 ± 7.6 J/K/kg
113.82 K, relaxation calorimetry | 185.55 ± 7.5 J/K/kg
113.85 K, relaxation calorimetry | 185.13 ± 7.5 J/K/kg
120.77 K, relaxation calorimetry | 188.39 ± 7.7 J/K/kg
120.8 K, relaxation calorimetry | 188.64 ± 7.7 J/K/kg
120.84 K, relaxation calorimetry | 187.28 ± 7.6 J/K/kg
127.76 K, relaxation calorimetry | 189.79 ± 7.7 J/K/kg
127.78 K, relaxation calorimetry | 190.45 ± 7.8 J/K/kg
127.81 K, relaxation calorimetry | 189.51 ± 7.7 J/K/kg
134.73 K, relaxation calorimetry | 191.98 ± 7.8 J/K/kg
134.75 K, relaxation calorimetry | 191.11 ± 7.8 J/K/kg
134.77 K, relaxation calorimetry | 191.32 ± 7.8 J/K/kg
141.7 K, relaxation calorimetry | 193.51 ± 7.9 J/K/kg
141.73 K, relaxation calorimetry | 192.35 ± 7.8 J/K/kg
141.74 K, relaxation calorimetry | 193.09 ± 7.8 J/K/kg
148.67 K, relaxation calorimetry | 194.87 ± 7.9 J/K/kg
148.71 K, relaxation calorimetry | 194.62 ± 7.9 J/K/kg and 193.75 ± 7.9 J/K/kg
155.61 K, relaxation calorimetry | 195.65 ± 8 J/K/kg
155.64 K, relaxation calorimetry | 195.94 ± 8 J/K/kg and 195.82 ± 8 J/K/kg
162.58 K, relaxation calorimetry | 197.26 ± 8 J/K/kg
162.62 K, relaxation calorimetry | 197.38 ± 8 J/K/kg
169.55 K, relaxation calorimetry | 198.54 ± 8.1 J/K/kg
169.58 K, relaxation calorimetry | 198.37 ± 8 J/K/kg
169.59 K, relaxation calorimetry | 198.42 ± 8 J/K/kg
176.53 K, relaxation calorimetry | 198.87 ± 8.1 J/K/kg
176.56 K, relaxation calorimetry | 198.83 ± 8.1 J/K/kg
176.57 K, relaxation calorimetry | 198.87 ± 8.1 J/K/kg
183.5 K, relaxation calorimetry | 199.69 ± 8.1 J/K/kg
183.54 K, relaxation calorimetry | 199.69 ± 8.1 J/K/kg
190.47 K, relaxation calorimetry | 200.4 ± 8.1 J/K/kg
190.51 K, relaxation calorimetry | 200.44 ± 8.1 J/K/kg and 200.48 ± 8.1 J/K/kg
197.43 K, relaxation calorimetry | 200.56 ± 8.1 J/K/kg
197.47 K, relaxation calorimetry | 200.68 ± 8.2 J/K/kg and 200.77 ± 8.2 J/K/kg
204.39 K, relaxation calorimetry | 201.18 ± 8.2 J/K/kg
204.43 K, relaxation calorimetry | 201.3 ± 8.2 J/K/kg
204.44 K, relaxation calorimetry | 201.34 ± 8.2 J/K/kg
211.34 K, relaxation calorimetry | 201.67 ± 8.2 J/K/kg
211.38 K, relaxation calorimetry | 201.76 ± 8.2 J/K/kg
211.39 K, relaxation calorimetry | 201.59 ± 8.2 J/K/kg
218.29 K, relaxation calorimetry | 201.76 ± 8.2 J/K/kg
218.34 K, relaxation calorimetry | 201.92 ± 8.2 J/K/kg
225.27 K, relaxation calorimetry | 202.09 ± 8.2 J/K/kg
225.31 K, relaxation calorimetry | 202.29 ± 8.3 J/K/kg and 202.17 ± 8.2 J/K/kg
226.53 K, relaxation calorimetry | 200.85 ± 8.2 J/K/kg
226.54 K, relaxation calorimetry | 201.01 ± 8.2 J/K/kg
231.55 K, relaxation calorimetry | 201.3 ± 8.2 J/K/kg
231.56 K, relaxation calorimetry | 201.22 ± 8.2 J/K/kg
232.22 K, relaxation calorimetry | 202.38 ± 8.3 J/K/kg
232.27 K, relaxation calorimetry | 202.33 ± 8.3 J/K/kg
232.28 K, relaxation calorimetry | 202.29 ± 8.3 J/K/kg
236.56 K, relaxation calorimetry | 201.39 ± 8.2 J/K/kg
236.57 K, relaxation calorimetry | 201.47 ± 8.2 J/K/kg
239.17 K, relaxation calorimetry | 202 ± 8.2 J/K/kg
239.24 K, relaxation calorimetry | 202.09 ± 8.2 J/K/kg and 202.05 ± 8.2 J/K/kg
241.58 K, relaxation calorimetry | 201.67 ± 8.2 J/K/kg
241.6 K, relaxation calorimetry | 201.26 ± 8.2 J/K/kg
246.14 K, relaxation calorimetry | 201.88 ± 8.2 J/K/kg
246.19 K, relaxation calorimetry | 202.09 ± 8.2 J/K/kg and 202.05 ± 8.2 J/K/kg
246.51 K, relaxation calorimetry | 201.51 ± 8.2 J/K/kg
246.52 K, relaxation calorimetry | 201.92 ± 8.2 J/K/kg
251.63 K, relaxation calorimetry | 202.09 ± 8.2 J/K/kg
251.64 K, relaxation calorimetry | 202 ± 8.2 J/K/kg
253.09 K, relaxation calorimetry | 202.17 ± 8.2 J/K/kg
253.15 K, relaxation calorimetry | 202.13 ± 8.2 J/K/kg and 202.17 ± 8.2 J/K/kg
256.55 K, relaxation calorimetry | 202.29 ± 8.2 J/K/kg
256.56 K, relaxation calorimetry | 202.17 ± 8.2 J/K/kg
260.04 K, relaxation calorimetry | 202.25 ± 8.2 J/K/kg
260.1 K, relaxation calorimetry | 202.25 ± 8.2 J/K/kg and 202.29 ± 8.2 J/K/kg
261.55 K, relaxation calorimetry | 202.25 ± 8.2 J/K/kg
261.57 K, relaxation calorimetry | 202.13 ± 8.2 J/K/kg
266.18 K, Extra sensitive DSC | 203.98 ± 7.9 J/K/kg
270 K, Extra sensitive DSC | 203.98 ± 7.9 J/K/kg
275 K, Extra sensitive DSC | 204.48 ± 7.9 J/K/kg
280 K, Extra sensitive DSC | 204.89 ± 7.9 J/K/kg
285 K, Extra sensitive DSC | 205.18 ± 8 J/K/kg
290 K, Extra sensitive DSC | 205.59 ± 8 J/K/kg
295 K, Extra sensitive DSC | 206.09 ± 8 J/K/kg
300 K, Extra sensitive DSC | 206.5 ± 8 J/K/kg
305 K, Extra sensitive DSC | 207.08 ± 8 J/K/kg
310 K, Extra sensitive DSC | 207.28 ± 8 J/K/kg
315 K, Extra sensitive DSC | 207.28 ± 8 J/K/kg
320 K, Extra sensitive DSC | 207.28 ± 8 J/K/kg
325 K, Extra sensitive DSC | 207.49 ± 8 J/K/kg
328.56 K, Extra sensitive DSC | 207.7 ± 8 J/K/kg
332.56 K, Extra sensitive DSC | 209.1 ± 8.1 J/K/kg
335.17 K, Extra sensitive DSC | 209.43 ± 8.1 J/K/kg
336.9 K, Extra sensitive DSC | 209.39 ± 8.1 J/K/kg
339.51 K, Extra sensitive DSC | 209.35 ± 8.1 J/K/kg
342.11 K, Extra sensitive DSC | 209.39 ± 8.1 J/K/kg
344.71 K, Extra sensitive DSC | 209.18 ± 8.1 J/K/kg
347.32 K, Extra sensitive DSC | 209.02 ± 8.1 J/K/kg
349.92 K, Extra sensitive DSC | 208.77 ± 8.1 J/K/kg
352.53 K, Extra sensitive DSC | 208.4 ± 8.1 J/K/kg
355.13 K, Extra sensitive DSC | 208.48 ± 8.1 J/K/kg
357.73 K, Extra sensitive DSC | 208.27 ± 8.1 J/K/kg
358.6 K, Extra sensitive DSC | 208.15 ± 8 J/K/kg
